From publication PMC7377239, “Cardiovascular Effects of Polychlorinated Biphenyls and Their Major Metabolites” (Environmental Health Perspectives, 2020)
Structures can show the parent of a compound that is named as a salt. Where two headings read alike, the source gives them in different places.

Tested on: iCell cardiomyocytes (human iPSC-derived cardiomyocytes)
Test: Intracellular Ca2+ flux / beating parameters in iCell cardiomyocytes (FLIPR tetra), 90 min or 24 h
Format: cell-based
Conditions: Homo sapiens, Cardiomyocyte, 0.00 µM = 100.00; for activity at 0.1 µM: 0.10 µM
How it was run: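 Gelatin-plated iCell cardiomyocytes (5,000/well) were dye-loaded for 2 h at 37 °C, then exposed for 90 min or 24 h to PCBs/metabolites (5× plates at 0.05–500 µM; 0.5% DMSO final) in triplicate. Ca2+ flux was read for 100 s at 8 Hz and 37 °C. Peak height, frequency, spacing CV and decay/rise ratio were vehicle-normalized and fitted with a four-parameter logistic model, with POD set at 1 SD of vehicle.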

[1] = 1.5 h, 90min, read-out: cm.amp.avg.90min
[2] = 1.5 h, 90min, read-out: cm.amp.cv.90min
[3] = 1.5 h, 90min, read-out: cm.bpm.90min
[4] = 1.5 h, 90min, read-out: cm.decay.rise.90min
[5] = 1.5 h, 90min, read-out: cm.spacing.cv.90min
[6] = 24 h, 24hrs, read-out: cm.amp.avg.24hrs
[7] = 24 h, 24hrs, read-out: cm.amp.cv.24hrs
[8] = 24 h, 24hrs, read-out: cm.bpm.24hrs
[9] = 24 h, 24hrs, read-out: cm.decay.rise.24hrs
[10] = 24 h, 24hrs, read-out: cm.spacing.cv.24hrs

## O=S(=O)(O)Oc1cc(Cl)c(-c2cc(Cl)ccc2Cl)cc1Cl [4-yl PCB 52 sulfate]
[1]
  activity at 0.01 µM: 103%
  activity at 0.1 µM: 113%
  activity at 1 µM: 102%
  activity at 10 µM: 98.4%
  activity at 100 µM: 0%
[2]
  activity at 0.01 µM: 105%
  activity at 0.1 µM: 86.3%
  activity at 1 µM: 104%
  activity at 10 µM: 103%
  activity at 100 µM: 0%
[3]
  activity at 0.01 µM: 102%
  activity at 0.1 µM: 103%
  activity at 1 µM: 100%
  activity at 10 µM: 97.8%
  activity at 100 µM: 0%
[4]
  activity at 0.01 µM: 101%
  activity at 0.1 µM: 90.8%
  activity at 1 µM: 97.7%
  activity at 10 µM: 97.1%
  activity at 100 µM: 0%
[5]
  activity at 0.01 µM: 100%
  activity at 0.1 µM: 101%
  activity at 1 µM: 97.4%
  activity at 10 µM: 104%
  activity at 100 µM: 0%
[6]
  activity at 0.01 µM: 128%
  activity at 0.1 µM: 135%
  activity at 1 µM: 147%
  activity at 10 µM: 167%
  activity at 100 µM: 0%
[7]
  activity at 0.01 µM: 103%
  activity at 0.1 µM: 70.5%
  activity at 1 µM: 69.4%
  activity at 10 µM: 68.9%
  activity at 100 µM: 0%
[8]
  activity at 0.01 µM: 97.4%
  activity at 0.1 µM: 94.5%
  activity at 1 µM: 95.5%
  activity at 10 µM: 92.6%
  activity at 100 µM: 0%
[9]
  activity at 0.01 µM: 104%
  activity at 0.1 µM: 109%
  activity at 1 µM: 104%
  activity at 10 µM: 98.8%
  activity at 100 µM: 0%
[10]
  activity at 0.01 µM: 107%
  activity at 0.1 µM: 110%
  activity at 1 µM: 91.9%
  activity at 10 µM: 111%
  activity at 100 µM: 0%
